The values that follow come from PubChem BioAssay AID1996.

≈ marks a conversion by molar mass, not a printed value.

For the series the following is noted: buffer; pH 7.4; 200.0 µM.
In turn, `CN(Cc1ccccc1)S(=O)(=O)c1ccc(NC(=O)C2CCCCC2C(=O)O)cc1` (stereo unspecified) came in with a kinetic solubility above 64.6 µg/mL.

Take `CC(C)CNC(=O)CN1C(=O)NC2(CCc3ccccc32)C1=O` (stereo unspecified): the solubility (kinetic) was above 47.3 µg/mL.

In the case of `COC(=O)C(NC(=O)c1ccccc1C(=O)O)c1ccc2ccccc2c1` (stereo unspecified), the kinetic solubility was above 54.5 µg/mL.

Molecule `O=C(COC(=O)/C=C/c1ccc(F)cc1)Nc1ccc(S(=O)(=O)N2CCOCC2)cc1` had a solubility (kinetic) of 6.1 µg/mL (≈ 13.6 µM).

Take `O=S(=O)(c1ccc(Cl)cc1)N1CCN(c2ccccn2)CC1`: the solubility (kinetic) came to 0.5 µg/mL (≈ 1.48 µM).

Molecule `COC(=O)c1ccc(C(=O)NC2CCSc3ccccc32)cc1` (stereo unspecified) showed a solubility (kinetic) of 4 µg/mL (≈ 12.2 µM).

The molecule `CCN(Cc1ccccc1)Cc1ccc(OCc2ccccc2)c(OC)c1` gave a solubility (kinetic) of 10.3 µg/mL (≈ 28.5 µM).

`O=C(COC(=O)c1ccc(O)cc1)Nc1ccccc1[N+](=O)[O-]` registered a kinetic solubility of 4.3 µg/mL (≈ 13.6 µM).

The molecule `c1cncc(-c2nc(NCC3CCCO3)c3ccccc3n2)c1` (stereo unspecified) returned a kinetic solubility above 46 µg/mL.

Regarding `Cc1ccc(C(=O)O/N=C(\N)c2ccccn2)cc1Cl`, the kinetic solubility is below 0.2 µg/mL.

For the molecule `Cc1onc(-c2ccccc2)c1C(=O)N1CCN(c2ccccn2)CC1`, the kinetic solubility was above 52.3 µg/mL.

For `Br.N=C1CCCN1CC(=O)c1cccs1`, the solubility (kinetic) came to 39 µg/mL.

On to `O=C(NCc1ccc(Cl)c(Cl)c1)c1ccc2c(c1)OCO2`, for which the solubility (kinetic) is 1.5 µg/mL (≈ 4.63 µM). Compared with the last molecule, the solubility kinetic is about 26-fold lower.

As to `Cc1ccc(C)c(C(=O)N2CCN(c3ncccn3)CC2)c1`, the solubility (kinetic) is above 44.5 µg/mL.

In turn, `Cc1cc(NC(=O)c2ccc([N+](=O)[O-])cc2Cl)no1` returned a solubility (kinetic) of 16.3 µg/mL (≈ 57.9 µM).

`CC(C)(C)c1ccc(Oc2ccc(NC(=O)c3cccs3)cn2)cc1` showed a solubility (kinetic) of 1.3 µg/mL (≈ 3.69 µM).

In the case of `O=C(Cc1ccccc1)NC(Cc1ccc(Cl)cc1)C(=O)O` (stereo unspecified), the solubility (kinetic) was above 47.7 µg/mL.

Molecule `O=[N+]([O-])/C=C\c1ccc(N2CCOCC2)cc1` gave a solubility (kinetic) of 16.5 µg/mL (≈ 70.4 µM).

In turn, `CC(=O)O[C@H](CC(=O)O)C[N+](C)(C)C.[Cl-]` returned a kinetic solubility above 36 µg/mL.

For `Cc1ccc(-c2nc(C#N)c(NCC3CCCO3)o2)cc1` (stereo unspecified), the solubility (kinetic) is 37 µg/mL (≈ 131 µM).

Molecule `CC(C)n1c(SCC(=O)Nc2nncs2)nnc1C1CC1` yielded a solubility (kinetic) above 48.7 µg/mL.

In the case of `Cc1cc(C(=O)NCc2nc(-c3ccccc3)no2)ccc1[N+](=O)[O-]`, the solubility (kinetic) came to 18.9 µg/mL (≈ 55.9 µM).

With `CCCCCN1CC(O)=C(c2nc3ccccc3[nH]2)C1=N`, the solubility (kinetic) was 1.1 µg/mL (≈ 3.87 µM).

Regarding `O=C1N=C(N2CCOCC2)S/C1=C\c1cccs1`, the kinetic solubility is above 42.1 µg/mL.

Molecule `Cc1c(C(=O)C(=O)NCc2ccco2)c2ccccc2n1C` yielded a kinetic solubility above 44.4 µg/mL.

`COn1c(C)c(C)c2c3nonc3ccc21` came in with a solubility (kinetic) of 8.9 µg/mL (≈ 41 µM).

Take `NC(=O)c1cc(NC(=O)COC(=O)CCCN2C(=O)c3cccc4cccc(c34)C2=O)cc(C(N)=O)c1`: the solubility (kinetic) amounted to 4.9 µg/mL (≈ 9.75 µM).

`CC(C)(C)N1C(=O)c2ccc(C(=O)Nc3ccc(O)cc3)cc2C1=O` returned a kinetic solubility of 17.4 µg/mL (≈ 51.4 µM).

The molecule `Cc1ccc(N2C(=O)N(CC(=O)Nc3cc(C)cc(C)c3)C(=O)C2C)cc1` (stereo unspecified) showed a kinetic solubility of 7.5 µg/mL (≈ 20.5 µM).

`CCCc1cc(=O)[nH]c(SCC(=O)N2CCCCCC2)n1` returned a solubility (kinetic) above 46.4 µg/mL.

Consider `O=C(O)CC1(CC(=O)NCc2ccncc2)CCCCC1`, for which the solubility (kinetic) is above 43.6 µg/mL.

On to `Cc1cnc(C(=O)OCC(=O)c2ccc(C)s2)cn1`, for which the kinetic solubility stood at 41.1 µg/mL (≈ 149 µM).

`COc1ccc(C(=O)Nc2cccnc2Cl)cc1OC` displayed a kinetic solubility of 42.5 µg/mL (≈ 145 µM).

As for `CCN(CC)CC(=O)N1c2ccccc2Sc2ccccc21`, the solubility (kinetic) is above 46.9 µg/mL.

Molecule `O=C(NC1CCSc2ccccc21)c1ccccc1Br` (stereo unspecified) yielded a kinetic solubility of 8.6 µg/mL (≈ 24.7 µM).

In the case of `CSc1ncc(C(=O)Nc2ccc(C)cc2C)c(C)n1`, the kinetic solubility was determined as 12.1 µg/mL (≈ 42.1 µM). This solubility kinetic and that of the molecule before are within 1.5-fold of each other.

Molecule `COc1ccc(NC(=O)C2C3CCC(O3)C2C(=O)O)c(OC)c1` (stereo unspecified) had a solubility (kinetic) above 48.2 µg/mL.

The molecule `Cn1c(=O)c(C(=O)NCCc2ccccc2)c(O)c2ccccc21` gave a solubility (kinetic) of 0.5 µg/mL (≈ 1.55 µM).

For `CN(C(=O)CSc1nnc(-c2ccc(F)cc2)n1C)C1CCS(=O)(=O)C1` (stereo unspecified), the kinetic solubility was above 59.8 µg/mL.

The molecule `O=C(N/C(=C/c1ccc(F)cc1)C(=O)N1CCCCC1)c1ccco1` had a solubility (kinetic) above 51.4 µg/mL.

`Cc1nc2ccc([N+](=O)[O-])cc2c(=O)n1Cc1ccccc1Br`: the solubility (kinetic) stood at 2 µg/mL (≈ 5.34 µM).

Regarding `Cc1ccc(OCC(O)CNC2CCCC2)c(C)c1.Cl` (stereo unspecified), the solubility (kinetic) was 41.3 µg/mL.

Turning to `COCCNC(=S)NCc1cccs1`, the solubility (kinetic) was 31.9 µg/mL (≈ 138 µM).

For the molecule `CCOC(=O)C1=C(COC(=O)C2CC(=O)N(CCc3ccccc3)C2)NC(=O)NC1C` (stereo unspecified), the kinetic solubility was above 64.4 µg/mL.

In turn, `CCCOc1ccc(-c2c(=O)n(O)c3ccccc3[n+]2[O-])cc1` displayed a solubility (kinetic) above 46.8 µg/mL.

As for `O=C(NNC1CC(=O)N(c2ccc(Cl)cc2)C1=O)c1ccco1` (stereo unspecified), the kinetic solubility was above 50.1 µg/mL.

For `CCOc1ccc(N2C(=O)CSC2=S)cc1`, the kinetic solubility was below 0.5 µg/mL.

`N#Cc1cc2c(nc1SCC(=O)O)CCCCC2`: the kinetic solubility was above 39.3 µg/mL.

As to `COc1ccc(-n2cnnc2SCC(=O)NC2CCCCC2)cc1`, the kinetic solubility was above 52 µg/mL.

In the case of `O=C1c2ccccc2NC(c2ccc(Br)s2)N1O` (stereo unspecified), the solubility (kinetic) came out at 37.5 µg/mL (≈ 115 µM).

Turning to `COC(=O)c1ccccc1NCC(=O)c1ccc(OC)cc1`, the solubility (kinetic) worked out at 11.2 µg/mL (≈ 37.4 µM).
